# Source: the supplement of paper PMC10307832
# Legend:
# Test in all cases: relative viability (nuclei count vs DMSO), 5 days (fraction); higher = more cells survive
# COR-L 105 = test system: COR-L 105
# In short: (§1)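 Lung cancer cell lines were seeded in 1536-well plates and dosed by pin tool the next day, with either a single drug or a fixed anchor-drug dose combined with five library-drug doses (not always all listed) spaced in √10 steps. Five days later, one step fixed the cells and stained their nuclei (final 0.05% Triton X-100, 1% formaldehyde, 1 ug/ml Hoechst), and nuclei were counted on 4× images. Relative viability is the nuclei count in treated wells divided by the count in vehicle wells, and each value is the median of duplicate plates.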
# COR-L23 = test system: COR-L23
# In short: as §1
# HARA = test system: HARA
# In short: as §1
# HCC-15 = test system: HCC-15
# In short: as §1
# HOP-62 = test system: HOP-62
# In short: as §1
# NCI-H1355 = test system: NCI-H1355
# In short: as §1
# NCI-H1734 = test system: NCI-H1734
# In short: as §1
# NCI-H1755 = test system: NCI-H1755
# In short: as §1
# NCI-H1792 = test system: NCI-H1792
# In short: as §1
# NCI-H1993 = test system: NCI-H1993
# In short: as §1
# NCI-H2009 = test system: NCI-H2009
# In short: as §1
# NCI-H2228 = test system: NCI-H2228
# In short: as §1
# NCI-H2347 = test system: NCI-H2347
# In short: as §1
# NCI-H647 = test system: NCI-H647
# In short: as §1
# NCI-H838 = test system: NCI-H838
# In short: as §1
# UMC-11 = test system: UMC-11
# In short: as §1
structure (smiles),measurement,setting,value
Nc1ccn([C@@H]2O[C@H](CO)[C@@H](O)[C@@H]2O)c(=O)n1 [Cytarabine] + CC(C)C[C@H](NC(=O)[C@H](Cc1ccccc1)NC(=O)c1cnccn1)B(O)O [Bortezomib] (partner 0.002 µM),relative viability,COR-L 105; first compound 0.005 µM,0.676
same,relative viability,COR-L 105; first compound 0.01581 µM,0.699
same,relative viability,COR-L 105; first compound 0.05 µM,0.464
same,relative viability,COR-L 105; first compound 0.1581 µM,0.399
same,relative viability,COR-L 105; first compound 0.5 µM,0.285
same,relative viability,COR-L23; first compound 0.005 µM,1.01
same,relative viability,COR-L23; first compound 0.01581 µM,0.945
same,relative viability,COR-L23; first compound 0.05 µM,0.913
same,relative viability,COR-L23; first compound 0.1581 µM,0.274
same,relative viability,COR-L23; first compound 0.5 µM,0.165
same,relative viability,HARA; first compound 0.005 µM,0.725
same,relative viability,HARA; first compound 0.01581 µM,0.642
same,relative viability,HARA; first compound 0.05 µM,0.652
same,relative viability,HARA; first compound 0.1581 µM,0.179
same,relative viability,HARA; first compound 0.5 µM,0.139
same,relative viability,HCC-15; first compound 0.005 µM,0.795
same,relative viability,HCC-15; first compound 0.01581 µM,1.03
same,relative viability,HCC-15; first compound 0.05 µM,1.16
same,relative viability,HCC-15; first compound 0.1581 µM,0.883
same,relative viability,HCC-15; first compound 0.5 µM,0.668
same,relative viability,HOP-62; first compound 0.005 µM,0.58
same,relative viability,HOP-62; first compound 0.01581 µM,0.291
same,relative viability,HOP-62; first compound 0.05 µM,0.208
same,relative viability,HOP-62; first compound 0.1581 µM,0.174
same,relative viability,HOP-62; first compound 0.5 µM,0.0493
same,relative viability,NCI-H1355; first compound 0.005 µM,1.02
same,relative viability,NCI-H1355; first compound 0.01581 µM,1.18
same,relative viability,NCI-H1355; first compound 0.05 µM,0.927
same,relative viability,NCI-H1355; first compound 0.1581 µM,0.644
same,relative viability,NCI-H1355; first compound 0.5 µM,0.389
same,relative viability,NCI-H1734; first compound 0.005 µM,0.515
same,relative viability,NCI-H1734; first compound 0.01581 µM,0.377
same,relative viability,NCI-H1734; first compound 0.05 µM,0.347
same,relative viability,NCI-H1734; first compound 0.1581 µM,0.149
same,relative viability,NCI-H1734; first compound 0.5 µM,0.159
same,relative viability,NCI-H1755; first compound 0.005 µM,0.922
same,relative viability,NCI-H1755; first compound 0.01581 µM,0.88
same,relative viability,NCI-H1755; first compound 0.05 µM,0.663
same,relative viability,NCI-H1755; first compound 0.1581 µM,0.282
same,relative viability,NCI-H1755; first compound 0.5 µM,0.294
same,relative viability,NCI-H1792; first compound 0.005 µM,0.925
same,relative viability,NCI-H1792; first compound 0.01581 µM,0.93
same,relative viability,NCI-H1792; first compound 0.05 µM,0.795
same,relative viability,NCI-H1792; first compound 0.1581 µM,0.565
same,relative viability,NCI-H1792; first compound 0.5 µM,0.55
same,relative viability,NCI-H1993; first compound 0.005 µM,1.1
same,relative viability,NCI-H1993; first compound 0.01581 µM,0.964
same,relative viability,NCI-H1993; first compound 0.05 µM,1
same,relative viability,NCI-H1993; first compound 0.1581 µM,0.768
same,relative viability,NCI-H1993; first compound 0.5 µM,0.62
same,relative viability,NCI-H2009; first compound 0.005 µM,1.05
same,relative viability,NCI-H2009; first compound 0.01581 µM,1.03
same,relative viability,NCI-H2009; first compound 0.05 µM,0.952
same,relative viability,NCI-H2009; first compound 0.1581 µM,0.634
same,relative viability,NCI-H2009; first compound 0.5 µM,0.311
same,relative viability,NCI-H2228; first compound 0.005 µM,0.791
same,relative viability,NCI-H2228; first compound 0.01581 µM,0.441
same,relative viability,NCI-H2228; first compound 0.05 µM,0.437
same,relative viability,NCI-H2228; first compound 0.1581 µM,0.197
same,relative viability,NCI-H2228; first compound 0.5 µM,0.156
same,relative viability,NCI-H2347; first compound 0.005 µM,1.22
same,relative viability,NCI-H2347; first compound 0.01581 µM,0.951
same,relative viability,NCI-H2347; first compound 0.05 µM,0.546
same,relative viability,NCI-H2347; first compound 0.1581 µM,0.61
same,relative viability,NCI-H2347; first compound 0.5 µM,0.667
same,relative viability,NCI-H647; first compound 0.005 µM,0.695
same,relative viability,NCI-H647; first compound 0.01581 µM,0.423
same,relative viability,NCI-H647; first compound 0.05 µM,0.513
same,relative viability,NCI-H647; first compound 0.1581 µM,0.113
same,relative viability,NCI-H647; first compound 0.5 µM,0.081
same,relative viability,NCI-H838; first compound 0.005 µM,0.802
same,relative viability,NCI-H838; first compound 0.01581 µM,0.615
same,relative viability,NCI-H838; first compound 0.05 µM,0.506
same,relative viability,NCI-H838; first compound 0.1581 µM,0.242
same,relative viability,NCI-H838; first compound 0.5 µM,0.21
same,relative viability,UMC-11; first compound 0.005 µM,0.339
same,relative viability,UMC-11; first compound 0.01581 µM,0.381
same,relative viability,UMC-11; first compound 0.05 µM,0.341
same,relative viability,UMC-11; first compound 0.1581 µM,0.155
same,relative viability,UMC-11; first compound 0.5 µM,0.155
